In patent US6458194B1, “Azo dye compound having 1,2,4-triazole as the azo component” (Fuji Photo Film Co., Ltd., priority 1999, dated 2002):

Tests used:
Assay type in all cases: physicochemical
[1] = Absorption characteristic in ethyl acetate
Excerpt: FIG. 1 is a spectrum chart showing an absorption characteristic in ethyl acetate of Compound 9 of the present invention where optical density of the transmitted light through a cell having the light path length of 1 cm is 1.0. Wave lengths giving the maximum absorption (λmax) are 428 nm for Compound 9, 440 nm for Compound 18, 438 nm for Compound 31, 442 nm for Compound 32, 435 nm for Compound 33 and 434 nm for Compound 3.

[2] = Color fastness against light, Xe lamp irradiation of recorded image; settings: Xe lamp 17,000 lux, 3 days; portion with initial reflection density 1.0
Excerpt: Next, the thermal transfer image accepting materials after such recording were irradiated with a Xe lamp (17,000 lux) for 3 days to evaluate the color fastness. More specifically, a portion showing a status-A reflection density of 1.0 before the irradiation was again measured for the status-A reflection density after the irradiation, which was expressed in a residual rate (in percent) to the pre-irradiation reflection density.

[3] = Suitability in ink production (solubility of coating composition for dye donating layer)
Excerpt: Suitability in Ink Production:
∘ coating composition for the thermal transfer dye donating layer has a good solubility;
Δ time-consuming heating is necessary to dissolve the coating composition for the thermal transfer dye donating layer; and
X incomplete solubilization of the coating composition for the thermal transfer dye donating layer having a undissolved portion of the dye crystal.

Structure (SMILES) | Wave length giving the maximum absorption (λmax) [1] [nm] | Color Fastness (residual rate of status-A reflection density) [2] [%] | Suitability for ink production (in words) [3]
CCS(=O)(=O)c1nsc(N=Nc2c(C(C)(C)C)nn3nc(C(C)C)[nH]c23)n1 [Compound 32] | 442 | 93 | 
CCSc1nsc(/N=N/c2c(-c3ccccc3Cl)nn3nc(C(C)C)[nH]c23)n1 [Compound 34] |  | 91 | 
CCS(=O)(=O)c1nsc(N=Nc2c(-c3ccccc3Cl)nn3nc(C(C)C)[nH]c23)n1 [Compound 18] | 440 | 91 | 
CCSc1nsc(N=Nc2c(C)nn3c(C(C)(C)C)n[nH]c23)n1 [Comparative Compound “a”, reference compound] |  | 89 | inferior
COc1ccc(-c2nsc(N=Nc3c(C(C)(C)C)nn4nc(C(C)C)[nH]c34)n2)cc1 [Compound 20] |  | 88 | 
CCCc1nn2nc(C(C)(C)C)c(N=Nc3nc(SC)ns3)c2[nH]1 [Compound 5] |  | 91 | 
CSc1nsc(N=Nc2c(C(C)(C)C)nn3nc(C(C)CN4C(=O)c5ccccc5C4=O)[nH]c23)n1 (stereo not drawn) [Compound 15] |  | 89 | 
CCOc1nn2nc(C)[nH]c2c1N=Nc1nc(-c2ccc(C(F)(F)F)cc2)ns1 [Compound 11] |  | 88 | 
CSc1nsc(N=Nc2c(-c3ccccc3)nn3nc(C(C)C)[nH]c23)n1 [Compound 7] |  | 90 | 
Cc1nn2nc(C(C)C)c(N=Nc3nc(-c4ccccc4)ns3)c2[nH]1 [Compound 21] |  | 87 | 
CC(C)c1nn2nc(-c3ccccc3Cl)c(N=Nc3nc(-c4ccccc4)ns3)c2[nH]1 [Compound 9] | 428 | 92 | 
CCSc1nsc(N=Nc2c(C(C)(C)C)nn3nc(C(C)C)[nH]c23)n1 [Compound 31] | 438 | 90 | 
Cc1nn2nc(C(C)(C)C)c(N=Nc3nc(-c4ccccc4)ns3)c2[nH]1 [Compound 10] |  | 90 | 
CSc1nsc(N=Nc2c(C(C)(C)C)nn3nc(C(C)CN4C(=O)C=CC4=O)[nH]c23)n1 (stereo not drawn) [Compound 25] |  | 90 | 
CCSc1nsc(N=Nc2c(C)nn3nc(C)[nH]c23)n1 [Compound 3] | 434 |  | 
CSc1nsc(N=Nc2c(C(C)(C)C)nn3nc(C(C)C)[nH]c23)n1 [Compound 4] |  | 90 | 
